# Experimental data reported in PMC8000760, “Potential Effect of Pseudevernia furfuracea (L.) Zopf Extract and Metabolite Physodic Acid on Tumour Microenvironment Modulation in MCF-10A Cells” (Biomolecules, 2021).
# Assays:
# [1] = test system: chorioallantoic membrane (CAM) of fertilised quail eggs; assay: Ex ovo chorioallantoic membrane (CAM) assay; format: in vivo, Coturnix coturnix japonica
# Protocol: Fertilised quail eggs (Coturnix coturnix japonica; 20 specimens) were obtained from the certified farm (Mala Ida, Slovakia) and incubated horizontally in a forced draft constant humidity incubator at 38.2 ± 0.5 °C and 58% relative humidity. After 56 h, the eggs were sterilised by wiping the surface lightly with 70% ethanol and allowed to dry. An incision was made in the middle ventral part of the shell, using sterile scissors, and the embryos were deposited in six-well tissue culture dishes (Sigma-Aldrich), which were then returned to the humidified incubator for an additional 4 days, until the start of the experiments. At day 7 (96 h after day 3), a sterilised silicone ring (10 mm inner diameter) was laid on CAM surface for the deposition of testing solution. […] At least 10 eggs were used in every experimental group. The photographs of CAM blood vessels’ formation inside of rings were obtained using a stereomicroscope Olympus SZ61 (Tokyo, Japan) and digital camera PROMICRA 3.2 (Prague, Czech Republic). Subsequently, photographs were pre-processed using QuickPHOTO MICRO microscope software (Promicra; Prague, Czech Republic). Representative images were then analysed using Wimasis Image Analysis automatic software to quantify the angiogenesis.
# [2] = test system: N-cadherin, fibronectin, α-SMA, Slug in BJ-5ta; assay: Western blot of mesenchymal markers in TGF-β-stimulated fibroblasts; format: cell-based; conditions: TGF-β-stimulated BJ-5ta, 48 and 72 h, time- and dose-dependent manner
# Protocol: (§1) The MCF-10A and BJ-5ta cells were seeded and cultivated for 24 h in a complete medium. One day after seeding, 30 ng/mL of TGF-β was added and cultivated for 7 days (d). TGF-β was added to induce epithelial–mesenchymal transition in tested cell lines. Lichen extract P. furfuracea (L.) Zopf and its metabolite physodic acid were added at time 0 h and then incubated for 24, 48 and 72 h for various analyses, as described in Figure 1.
# (§2) Proteins isolated from MCF-10A and BJ-5ta cell lysates were determined by the Pierce® BCA Protein Assay Kit (Thermo Scientific, Rockford, IL, United States), using bovine serum albumin (BSA) as the standard, and measured by an automated Cytation™ 3 Cell Imaging Multi-Mode Reader (Biotek) at a wavelength of 570 nm. Proteins were separated on SDS-PAA gel (12%) at 100 V for 2 h and then transferred to a polyvinylidene difluoride (PVDF) membrane using the iBlot dry blotting system (Thermo Scientific, Rockford, IL, United States). […] After incubation, the membrane was again washed in TBS-Tween (3 × 5 min), and the expression of the protein was detected using a chemiluminescent ECL substrate (Thermo Fisher Scientific) and MF-ChemiBIS 2.0 Imaging System (DNR BIO-Imaging Systems, Jerusalem, Israel). The detected band was then analysed densitometrically using the Image Studio Lite software (LI-COR Biosciences, Lincoln, NE, USA). […]
# E-cadherin in BJ-5ta = assay: Western blot of E-cadherin in TGF-β-stimulated fibroblasts; format: cell-based; conditions: TGF-β-stimulated BJ-5ta, 48 and 72 h
# Protocol: as §1, §2
# [3] = test system: E-cadherin in TGF-β-stimulated MCF-10A cells; assay: E-cadherin expression (Western blot, flow cytometry, immunofluorescence); format: cell-based, human; conditions: TGF-β-stimulated groups
# Protocol: as §1
# The MCF-10A cells (1 × 10^4/well) were seeded in Petri dishes and stimulated with […] TGF-β for 7 days. […] After detaching, using Trypsin/EDTA, cells were harvested and pelleted by centrifugation at 1200 rpm for 5 min. […] All samples were analysed using a FACS Calibur flow cytometer (Becton Dickinson, San Jose, CA, USA). […]
# Proteins isolated from MCF-10A and BJ-5ta cell lysates were determined by the Pierce® BCA Protein Assay Kit (Thermo Scientific, Rockford, IL, United States), using bovine serum albumin (BSA) as the standard, and measured by an automated Cytation™ 3 Cell Imaging Multi-Mode Reader (Biotek) at a wavelength of 570 nm. […] After incubation, the membrane was again washed in TBS-Tween (3 × 5 min), and the expression of the protein was detected using a chemiluminescent ECL substrate (Thermo Fisher Scientific) and MF-ChemiBIS 2.0 Imaging System (DNR BIO-Imaging Systems, Jerusalem, Israel). […]
# pSmad2/3 in BJ-5ta = assay: Western blot of phospho-Smad2/3 in TGF-β-stimulated fibroblasts; format: cell-based; conditions: TGF-β-stimulated BJ-5ta, time-dose manner
# Protocol: as §1, §2
# BJ-5ta = assay: BrdU cell proliferation assay; format: cell-based; conditions: 72 h
# Protocol: The MCF-10A (5 × 10^3/well), BJ-5ta (5 × 10^3/well) and HUVEC cells (4 × 10^3/well) were plated in a 96-well plate in 80 μL suitable medium. HUVECs were seeded onto a gelatine-coated plate. After 24 h, cells were treated with the range of concentration 10–100 μg/mL for 72 h (MCF-10A, BJ-5ta), or in the presence or absence of 25 ng/mL of VEGF for 48 h (HUVECs). After 48 h (MCF-10A, BJ-5ta) or 24 h (HUVECs), BrdU labelling solution was added into cells and incubated for another 24 h at 37 °C, followed by fixation and incubation with anti-BrdU peroxidase conjugate solution for an additional 1.5 h at room temperature (RT). Then, cells were washed with washing buffer PBS and incubated with substrate solution TMB for 5 to 30 min according to colour intensity. Finally, we added stop solution (1 M H2SO4) and incorporated BrdU was detected with an automated CytationTM 3 Cell Imaging Multi-Mode Reader at 450 nm (reference wavelength: 690 nm). Three independent experiments were performed at different intervals.
# [4] = VEGF-stimulated (25 ng/mL), IC10, 72 h, compared to VEGF alone
compound,measurement,setting,value
"CCCCCC(=O)Cc1cc(O)cc2c1C(=O)Oc1cc(O)c(C(=O)O)c(CCCCC)c1O2 [Phy, physodic acid]",total branching points,[1]; [4],significant decrease
same,total vascular network length,[1]; [4],significant decrease
same,vascular density,[1]; [4],significant decrease
same,total branching points,[1]; absence of VEGF,not significantly affected
same,vessel density,[1]; non-stimulated group (absence of VEGF),significant change
same,mesenchymal markers expression,[2],significantly decrease
same,expression of epithelial marker E-cadherin,E-cadherin in BJ-5ta,did not significantly change
same,restoration of E-cadherin,[3],did not observe a significant restoration
same,phosphorylation levels of Smad2 and Smad3 (pSmad2/3),pSmad2/3 in BJ-5ta,decreased
same,IC10,BJ-5ta,62.88 ± 0.90 µM
same,IC50,BJ-5ta,164 ± 4.5 µM
